Data reported in ChEMBL document CHEMBL6153094, “Rationally designed highly amphipathic antimicrobial peptides demonstrating superior bacterial selectivity relative to the corresponding α-helix peptide” (Eur J Med Chem, 2025).
Converted amounts (≈) assume the structure as drawn. The source made the active and inactive calls. The calls are words filed in the database; no cut-off is given here.

Tests used:
Staphylococcus aureus [1] = experiment: Antimicrobial activity against Staphylococcus aureus ATCC 25923 assessed as inhibition of visible bacterial growth incubated for 18 hrs by broth-dilution method; assay type: functional
Escherichia coli = experiment: Antimicrobial activity against Escherichia coli ATCC 25922 assessed as inhibition of visible bacterial growth incubated for 18 hrs by broth microdilution method; assay type: functional
Acinetobacter baumannii = experiment: Antimicrobial activity against Acinetobacter baumannii ATCC 19606 assessed as inhibition of visible bacterial growth incubated for 18 hrs by broth microdilution method; assay type: functional
Enterococcus faecalis = experiment: Antimicrobial activity against Enterococcus faecalis ATCC 29212 assessed as inhibition of visible bacterial growth incubated for 18 hrs by broth-dilution method; assay type: functional
Klebsiella pneumoniae = experiment: Antimicrobial activity against Klebsiella pneumoniae ATCC 700603 assessed as inhibition of visible bacterial growth incubated for 18 hrs by broth microdilution method; assay type: functional
Bacillus subtilis = experiment: Antimicrobial activity against Bacillus subtilis ATCC 23857 assessed as inhibition of visible bacterial growth incubated for 18 hrs by broth microdilution method; assay type: functional
[2] = test system: Staphylococcus epidermidis; experiment: Antimicrobial activity against Staphylococcus epidermidis ATCC 12228 assessed as inhibition of visible bacterial growth incubated for 18 hrs by broth-dilution method; assay type: functional
Pseudomonas aeruginosa = experiment: Antimicrobial activity against Pseudomonas aeruginosa ATCC 27853 assessed as inhibition of visible bacterial growth incubated for 18 hrs by broth microdilution method; assay type: functional
Staphylococcus aureus [3] = experiment: (§1) Antibacterial activity against methicillin-resistant Staphylococcus aureus ATCC 33591 infected in male Balb/c mouse model of full thickness skin wound assessed as decrease in cell necrosis in skin at 1 mg/ml pre-infected with bacteria for 1 hrs followed by compound administration at 1,12 and 36 hrs post infection and measured after 10 days by H and E staining based analysis; assay type: functional, organism-based; settings: time 10.0 day
Staphylococcus aureus [4] = experiment: Antibacterial activity against methicillin-resistant Staphylococcus aureus ATCC 33591 infected in male Balb/c mouse model of full thickness skin wound assessed as reduction in bacteria in skin wound at 1 mg/ml pre-infected with bacteria for 1 hrs followed by compound administration at 1,12 and 36 hrs post infection and measured after 10 days by photographic analysis; assay type: functional, organism-based; settings: time 10.0 day
Staphylococcus aureus [5] = experiment: as §1, with “reduction” for “decrease”, “number of inflammatory cells” for “cell necrosis”; assay type: functional, organism-based; settings: time 10.0 day
Staphylococcus aureus [6] = experiment: Antimicrobial activity against methicillin-drug resistant Staphylococcus aureus ATCC 33591 assessed as concentration required to eliminate 90% bacteria incubated for 18 hrs by broth-microdilution method; assay type: functional
Staphylococcus aureus [7] = experiment: Antibacterial activity against methicillin-resistant Staphylococcus aureus ATCC 33591 infected in male Balb/c mouse model of full thickness skin wound assessed as reduction in bacterial load in skin at 1 mg/ml pre-infected with bacteria for 1 hrs followed by compound administration at 1,12 and 36 hrs post infection and measured 60 hrs post infection by agar plate method; assay type: functional, organism-based; settings: time 59.0 hrs
[8] = Hemolytic activity in mouse red blood cells assessed as hemolysis incubated for 1 hrs by absorbance based assay; assay type: toxicity, cell-based; settings: erythrocyte

Molecule	MIC (Staphylococcus aureus [1]) [µM]	MIC (Escherichia coli) [µM]	MIC (Acinetobacter baumannii) [µM]	MIC (Enterococcus faecalis) [µM]	MIC (Klebsiella pneumoniae) [µM]	MIC (Bacillus subtilis) [µM]	MIC [2] [µM]	MIC (Pseudomonas aeruginosa) [µM]	Activity (Staphylococcus aureus [3])	Activity (Staphylococcus aureus [4])	Activity (Staphylococcus aureus [5])	EC90 (Staphylococcus aureus [6]) [nM]	Activity (Staphylococcus aureus [7])	HC10 [8] [µM]	Activity [8]
CO[C@H]1/C=C/O[C@@]2(C)Oc3c(C)c(O)c4c(O)c(c(/C=N/N5CCN(C)CC5)c(O)c4c3C2=O)NC(=O)/C(C)=C\C=C\[C@H](C)[C@H](O)[C@@H](C)[C@@H](O)[C@@H](C)[C@H](OC(C)=O)[C@@H]1C [RIFAMPIN]	< 1	8 (≈ 6.58 µg/mL)	1 (≈ 0.823 µg/mL)	< 1	32 (≈ 26.3 µg/mL)	< 1	< 1	32 (≈ 26.3 µg/mL)	–	–	–	–	–	–	–
CN[C@H](CC(C)C)C(=O)N[C@H]1C(=O)N[C@@H](CC(N)=O)C(=O)N[C@H]2C(=O)N[C@H]3C(=O)N[C@H](C(=O)N[C@H](C(=O)O)c4cc(O)cc(O)c4-c4cc3ccc4O)[C@H](O)c3ccc(c(Cl)c3)Oc3cc2cc(c3O[C@@H]2O[C@H](CO)[C@@H](O)[C@H](O)[C@H]2O[C@H]2C[C@](C)(N)[C@H](O)[C@H](C)O2)Oc2ccc(cc2Cl)[C@H]1O [VANCOMYCIN]	< 1	128 (≈ 186 µg/mL)	32 (≈ 46.4 µg/mL)	2 (≈ 2.9 µg/mL)	128 (≈ 186 µg/mL)	< 1	< 1	> 128	Active	Active; Obvious Facilitation Of Wound Healing Not Observed	Active	289	Active	–	–
H-RRWFRRWERWFE-NH2	32	16	32	128	16	4	8	16	–	–	–	–	–	> 256	–
H-RRWFRRWFRRWF-NH2	8	16	16	16	16	8	8	16	–	–	–	–	–	16.44	–
H-RRWFRRWFRWFF-NH2	32	32	32	32	32	2	4	16	–	–	–	–	–	–	Toxic
H-RRWFRRWGRWFG-NH2 [listing 1 of 2 here]	–	–	–	–	–	–	–	–	–	–	–	–	–	> 256	–
H-RRWFRRWGRWFG-NH2 [listing 2 of 2 here]	16	8	32	32	8	2	2	2	–	–	–	–	–	–	–
H-RRWFRRWIRWFI-NH2	16	16	16	16	16	1	4	16	–	–	–	–	–	2.39	–
H-RRWFRRWKRWFK-NH2	4	8	16	32	4	1	2	2	–	–	–	–	–	> 256	–
H-RRWFRRWLRWFL-NH2	16	16	32	32	32	2	2	16	–	–	–	–	–	–	Toxic
H-RRWFRRWTRWFT-NH2	8	8	8	16	8	1	2	4	–	–	–	–	–	> 256	–
H-RRWFRRWWRWFW-NH2	32	32	32	32	64	4	4	32	–	–	–	–	–	–	Toxic
